From patent US7776924B2, “Nitroaniline-based alkylating agents and their use as prodrugs” (Auckland Uniservices Limited, priority 2002, dated 2010)
pIC50: −log10 of the molar value.

Assays:
SKOV3 = assay: Cytotoxicity in wild-type (NR−) human ovarian cell line SKOV3; format: cell-based
SC3.2 = assay: Cytotoxicity in NTR-transfected (NR+) human ovarian cell line SC3.2; format: cell-based; conditions: for pIC50: SC3.2 NTR-transfected, 18 h exposure; for Ratio = IC50(NR−)/IC50(NR+) Human Ovarian: SKOV3 / SC3.2, 18 h exposure
WIDR = assay: Cytotoxicity in wild-type (NR−) human colon cell line WIDR; format: cell-based; conditions: 18 h exposure
WC14.10 = assay: Cytotoxicity in NTR-transfected (NR+) human colon cell line WC14.10; format: cell-based; conditions: for pIC50: WC14.10 NTR-transfected, 18 h exposure; for Ratio = IC50(NR−)/IC50(NR+) Human colon: WIDR / WC14.10, 18 h exposure
[1] = tested on: A549 human lung carcinoma cells; assay: Cytotoxicity in oxic and anoxic wild-type A549 human lung carcinoma cells; format: cell-based; conditions: 4 h exposure; for pIC50: anoxic, read-out: IC50 WT anoxic
[2] = tested on: A549 transfected with human cytochrome P450 reductase (P450R); assay: Cytotoxicity in oxic and anoxic A549 cells transfected with human cytochrome P450 reductase; format: cell-based; conditions: 4 h exposure; for pIC50: anoxic
[3] = Friedlos et al., J. Med. Chem. 1997, 40, 1270; cited from earlier work

Structure (SMILES) | pIC50 (SKOV3; Homo sapiens, SK-OV-3, 18 h exposure) | pIC50 (SC3.2; Homo sapiens) | Ratio = IC50(NR−)/IC50(NR+) Human Ovarian (SC3.2) | pIC50 (WIDR; Homo sapiens) | pIC50 (WC14.10; Homo sapiens) | Ratio = IC50(NR−)/IC50(NR+) Human colon (WC14.10) | melting point [°C] | pIC50 (SKOV3; 18 h exposure) | pIC50 (SC3.2) | pIC50 (WIDR) | pIC50 (WC14.10) | WT Ratio = IC50(aerobic)/IC50(anoxic) [1] | pIC50 [1] | P450R ratio = IC50(aerobic)/IC50(anoxic) [2] | pIC50 [2] | potency as described in the literature [3]
COC(=O)CCNC(=O)c1cc([N+](=O)[O-])cc([N+](=O)[O-])c1N(CCCl)CCOS(C)(=O)=O [IIb8, Methyl 3-{[2-((2-chloroethyl){2-[(methylsulfonyl)oxy]ethyl}amino)-3,5-dinitrobenzoyl]amino}propanoate] | 5.01 | 6.72 | 51 | 5.37 | 6.44 | 13 | 128 to 130 |  |  |  |  |  |  |  |  | 
CS(=O)(=O)OCCN(CCBr)c1cc(C(=O)NCCO)c([N+](=O)[O-])cc1[N+](=O)[O-] [IIa5, 2-((2-Bromoethyl)5-{[(2-hydroxyethyl)amino]carbonyl}-2,4-dinitroanilino)ethyl methanesulfonate] |  |  | 470 |  |  | 250 |  | 3.54 | 6.21 | 3.72 | 6.11 | 5.2 | 3.86 | 9.9 | 4.14 | 
CS(=O)(=O)OCCN(CCCl)c1ccc([N+](=O)[O-])c(C(=O)NCCCO)c1[N+](=O)[O-] [IIc4, 2-((2-Chloroethyl)-3-{[(3-hydroxypropyl)amino]carbonyl}-2,4-dinitroanilino)ethyl methanesulfonate] |  |  | 549 |  |  | 215 |  | 3.10 | 5.80 | 3.41 | 5.59 | 26 | 4.09 | 108 | 5.14 | 
CS(=O)(=O)OCCN(CCBr)c1c(C(=O)NCCO)cc([N+](=O)[O-])cc1[N+](=O)[O-] [IIb3, 2-((2-Bromoethyl)-2-{[(2-hydroxyethyl)amino]carbonyl}-4,6-dinitroanilino)ethyl methanesulfonate] |  |  | 142 |  |  | 66 |  | 5.28 | 7.40 | 5.43 | 7.22 | 26 | 5.64 | 133 | 6.55 | 
CS(=O)(=O)OCCN(CCCl)c1cc(C(N)=O)c([N+](=O)[O-])cc1[N+](=O)[O-] [No 5, 2-[5-(aminocarbonyl)(2-chloroethyl)-2,4-dinitroanilino]ethyl methanesulfonate] |  |  |  |  |  |  |  |  |  |  |  |  |  |  |  | not sufficiently potent for a full biological evaluation to be conducted
